2 molecules from US12599134B2, “Herbicidal compositions comprising acetochlor” (BASF SE, priority 2024, dated 2026) can be followed below.

The subject of the assay is emerged weeds. As to the kind of experiment: Post-emergence application in greenhouse trials (scale 0 to 100; expected value by Colby). Type of assay: in vivo. As for the experimental part: In the examples below, using the method of S. R. Colby (1967) “Calculating synergistic and antagonistic responses of herbicide combinations”, Weeds 15, p. 22ff., the value E, which is expected if the activity of the individual active compounds is only additive, was calculated:
[formula] • where • X=percent activity using active herbicide A at an application rate a; • Y=percent activity using active herbicide B (e.g. acetochlor) at an application rate b; • E=expected activity (in %) by A+B at application rates a+b.
If the value found experimentally is higher than the value E calculated according to Colby, a synergistic effect is present.
The culture containers used were plastic pots containing loamy sand with approximately 3.0% of humus as substrate. The seeds of the test plants were sown separately for each species.
[…] To this end, the test plants were either sown directly, and grown in the same containers, or they were first grown separately as seedlings and transplanted into the test containers a few days prior to treatment.
Depending on the species, the plants were kept at 10-25° C. and 20-35° C., respectively. The test period extended over 2 to 4 weeks. During this time, the plants were tended and their response to the individual treatments was evaluated.
Evaluation was carried out using a scale from 0 to 100. 100 means no emergence of the plants, or complete destruction of at least the above-ground parts, and 0 means no damage or normal course of growth. A good herbicidal activity is given at values of at least 70, and very good herbicidal activity is given at values of at least 85.
Herbicide A-1 and acetochlor were, together with addition of 0.5% MSO (methylated sed oil) as adjuvant, formulated in water as distribution medium (water volume 200 l/ha) and sprayed with commercial flat fan nozzles.
Herbicide A-1, acetochlor and mesotrione were, together with addition of 0.5 v/v % MSO (methylated sed oil) as adjuvant, formulated in water as distribution medium (water volume 200 l/ha) and sprayed with commercial flat fan nozzles.
Herbicide A-1, acetochlor and topramezone were, together with addition of 0.5 v/v % MSO (methylated sed oil) as adjuvant, formulated in water as distribution medium (water volume 200 l/ha) and sprayed with commercial flat fan nozzles.

With `CS(=O)(=O)c1ccc(C(=O)C2C(=O)CCCC2=O)c([N+](=O)[O-])c1` [C-24, mesotrione], the “% Herbicidal activity” value stood at 60% (ABUTH, growth stage 15, 7 DAT, g ai/ha: A-1 0.5, B 200, C-24 50); 90% (ABUTH, growth stage 15, 21 DAT, g ai/ha: A-1 0.25, B 200, C-24 50); 10% (AVEFA, growth stage 11, 21 DAT, g ai/ha: A-1 2, B 200, C-24 50); 90% (COMBE, growth stage 13, 21 DAT, g ai/ha: A-1 1, B 200, C-24 50); 95% (ECHCG, growth stage 12, 21 DAT, g ai/ha: A-1 2, B 200, C-24 50); 0% (ZEAMX, growth stage 12, 21 DAT, g ai/ha: A-1 2, B 200, C-24 50).

As to `Cc1c(C(=O)c2cnn(C)c2O)ccc(S(C)(=O)=O)c1C1=NOCC1` [C-25, topramezone], the “% Herbicidal activity” value (ABUTH, growth stage 15, 7 DAT, g ai/ha: A-1 0.5, B 200, C-25 3.125) is given as 50%; the “% Herbicidal activity” value (AVEFA, growth stage 11, 7 DAT, g ai/ha: A-1 2, B 200, C-25 3.125) is recorded as 10%; the “% Herbicidal activity” value (AVEFA, growth stage 11, 21 DAT, g ai/ha: A-1 2, B 200, C-25 3.125) came to 10%; the “% Herbicidal activity” value (BRADC, growth stage 11, 21 DAT, g ai/ha: A-1 2, B 200, C-25 3.125) worked out at 55%; the “% Herbicidal activity” value (COMBE, growth stage 13, 21 DAT, g ai/ha: A-1 1, B 200, C-25 3.125) is on record as 35%; the “% Herbicidal activity” value (ECHCG, growth stage 12, 21 DAT, g ai/ha: A-1 2, B 200, C-25 3.125) was 80%. Also, the “% Herbicidal activity” value was 35% (ERICA, growth stage 19, 7 DAT, g ai/ha: A-1 2, B 200, C-25 3.125); 20% (GLXMA, growth stage 18, 7 DAT, g ai/ha: A-1 1, B 200, C-25 3.125); 10% (KCHSC, growth stage 29, 21 DAT, g ai/ha: A-1 1, B 200, C-25 3.125); 10% (KCHSC, growth stage 29, 21 DAT, g ai/ha: A-1 2, B 200, C-25 3.125); 0% (LOLMU, growth stage 11, 7 DAT, g ai/ha: A-1 2, B 200, C-25 3.125); 0% (LOLMU, growth stage 11, 21 DAT, g ai/ha: A-1 2, B 200, C-25 3.125). Further, the “% Herbicidal activity” value (ZEAMX, growth stage 12, 21 DAT, g ai/ha: A-1 2, B 200, C-25 3.125) is recorded as 0%.
